{"source": "patent US20040082503A1", "about": "“Methods for treatment of diabetes using peptide analogues of insulin” (Neurocrine Biosciences, Inc., priority 1998, published 2004)", "key": {"[1]": {"tested_on": "Insulin B chain (9-23) specific murine T cell clone PD12-2.35", "assay": "Proliferation of insulin B chain (9-23) specific murine T cell clone PD12-2.35", "format": "cell-based, mouse (NOD)", "conditions": "clone PD12-2.35, 50 μM peptide, Exp. 1 and 2; for S.I. (Stimulation Index): cpm with peptide/cpm in medium alone", "protocol": "(§1) Insulin specific NOD T cell lines were established by culturing lymphocytes isolated from islet-infiltrating populations by in vitro stimulation with either porcine insulin at 25 μg/ml and irradiated NOD islet cell in the presence of irradiated NOD spleen cells as antigen presenting cells and cytokines. To obtain the infiltrating lymphocytes the following procedures were performed (see Wegmann et al., Eur. J. Immunol. 24:1853, 1994): the pancreas from the NOD mouse was digested with collagenase and individual islets were isolated manually. The infiltrating lymphocytes were then obtained by mild trypsin digestion of the islets. The insulin specific T cell lines or clones were propagated by serial stimulation in the presence of NOD spleen cells, porcine insulin and lymphokines. Clones were obtained by limiting dilution of the B chain (9-23) specific T cell lines in the presence of the antigen presenting cells and porcine insulin at 25 μg/ml. Wells with a growing population of cells following limiting dilution were expanded in appropriate medium, and after one cycle of growth were tested for reactivity to the B chain (9-23) peptide of insulin by evaluating the proliferative response.\n(§2) Insulin B chain (9-23) (SEQ ID NO:2) specific mouse (NOD) T cell clones were isolated from infiltrated islets as described in Example 2. Peptide analogues with single alanine substitutions were prepared as described in Example 1. The effect of each analogue on T cell proliferation was then evaluated using an assay performed in 96-well flat bottom microtiter plates (see Daniel et al., Eur. J. Immunol. 25:1056, 1995). Briefly 25,000 T cell clones along with 1 million irradiated NOD spleen cells were cultured in the presence of 50 μg/ml of insulin B chain 9-23 peptide or any of the alanine substituted peptides listed below in triplicate sets. The plates were incubated for a total of 72 hours in 7% carbon dioxide atmosphere with a pulse of 1 μCi/well of tritiated thymidine for the last 6-8 hours of culture. Cells were harvested on a glass fiber filter and the associated radioactivity was counted in a liquid scintillation counter. Results are expressed as mean counts per minute of triplicate wells.\n(§3) NOD T cell clones were incubated in the presence of 50 μM of either the native B chain (9-23) peptide or NBI-6024. The data in Table 3 represent the mean of triplicate sample±standard error of the mean. Within Table 3, S.I. (Stimulation Index)=proliferation (cpm) in the presence of the peptide/proliferation (cpm) in medium alone."}, "[2]": {"tested_on": "lymph node and spleen cells from immunized NOD mice", "assay": "Immunogenicity in NOD mice: proliferative response of lymph node/spleen cells of immunized mice", "format": "cell-based, NOD mouse", "protocol": "FIGS. 17A and 17B are graphs showing the ability of a double substituted peptide (A^16,19) to evoke an immune response. Five female NOD mice were immunized subcutaneously with 20 mg/kg of soluble NBI-6024 on days 1, 6 and 12. On day 15, the mice were sacrificed, the inguinal lymph node cells removed and culture in the presence of varying concentrations (0-50 μM) of either NBI-6024 (FIG. 17A) or insulin B chain (9-23) peptide (FIG. 17B). The extent of T-cell proliferation was determined using ^3H-thymidine incorporation. The response is expressed as mean CPM±SEM of triplicate cultures.\nGroups of 3-4 NOD mice were immunized with 100-400 μg of peptide analogues subcutaneously in mannitol acetate buffer three times within a period of 10-15 days. Following the last immunization, lymph node cells and/or spleen cells were used in a proliferation assay in which different concentrations of the immunizing peptide were cultured with the cells for 3-4 days. The last 18 hours of culture included tritiated thymidine. Cells were harvested and counted in a scintillation counter and the response is expressed as CPM±SEM.\nThe ability of the double substituted peptide NBI-6024 (A^16,19) to induce a cellular immune response in NOD mouse strain was next determined. Two female NOD mice were immunized with 10 mg/kg NBI-6024 either as an aqueous suspension or, as a control, emulsified in complete Freund's adjuvant (CFA). On Day 8, three days following the last injection, the mice were sacrificed, the spleen and inguinal lymph node cells were removed and pooled, and a single-cell suspension was prepared. Cells were cultured in the presence of varying concentrations (0-25 μM) of NBI-6024. The ability of these lymphoid cells to proliferate in response to NBI-6024 was measured in vitro by [^3H]-thymidine incorporation."}, "[3]": {"tested_on": "Murine NOD T cell clone PD12-2.40 response to insulin B chain (9-23) peptide", "assay": "Antagonism of T cell proliferation assay, clone PD12-2.40", "format": "cell-based, mouse (NOD)", "conditions": "for % Inhibition: N/A = no inhibition observed", "protocol": "(§4) Peptide analogues of B chain (9-23) containing alanine substitutions at residue 12, 13, 15 or 16 or the doubly substituted peptide at positions 16 and 19 (A^16,19; NBI-6024) were prepared as described in Example 1. T cell antagonism was detected by evaluating the ability of the peptide analogues to inhibit T cell proliferation induced by native B chain (9-23) (SEQ ID NO:2). In this assay, antigen presenting cells were first irradiated and then incubated with the competing peptide analogue and the native B chain (9-23) peptide. T cells were then added to the culture. Various concentrations of candidate peptide analogues were included in cultures which were incubated for a total of 4 days. Following this incubation period, each culture was pulsed with 1 μCi of [^3H]-thymidine for an additional 12-18 hours. Cultures were then harvested on fiberglass filters and counted as above. Mean CPM and standard error of the mean were calculated from data determined in triplicate cultures.\n(§5) Within Table 4, the control peptide, NBI-5096, is an unrelated peptide from myelin basic protein. The percent inhibition was calculated as: (1−experimental cpm/insulin peptide cpm)×100%."}, "[4]": {"tested_on": "Insulin B chain (9-23) specific murine T cell clone PD12-4.9", "assay": "Proliferation of insulin B chain (9-23) specific murine T cell clone PD12-4.9", "format": "cell-based, mouse (NOD)", "conditions": "clone PD12-4.9, 50 μM peptide, Exp. 1 and 2; for S.I. (Stimulation Index): cpm with peptide/cpm in medium alone", "protocol": "as §1, §2, §3"}, "[5]": {"tested_on": "NOD mice (spontaneous diabetes)", "assay": "Reduction of incidence of diabetes in NOD mice", "format": "in vivo, NOD mouse"}, "[6]": {"tested_on": "Murine NOD T cell clone PD12-2.35 response to insulin B chain (9-23) peptide", "assay": "Antagonism of T cell proliferation assay, clone PD12-2.35", "format": "cell-based, mouse (NOD)", "conditions": "for % Inhibition: N/A = no inhibition observed", "protocol": "as §4, §5"}, "[7]": {"conditions": "listed as Insulin B Chain (9-23)"}, "[8]": {"conditions": "T cells of Mouse #1 immunized with soluble NBI-6024, challenge peptide 1 μM, 0 μM 19,130 ± 2191"}, "[9]": {"conditions": "T cells of Mouse #1 immunized with soluble NBI-6024, challenge peptide 5 μM"}, "[10]": {"conditions": "T cells of Mouse #1 immunized with soluble NBI-6024, challenge peptide 25 μM"}, "[11]": {"conditions": "T cells of Mouse #2 immunized with soluble NBI-6024, challenge peptide 1 μM, 0 μM 21,588 ± 2326"}, "[12]": {"conditions": "T cells of Mouse #2 immunized with soluble NBI-6024, challenge peptide 5 μM"}, "[13]": {"conditions": "T cells of Mouse #2 immunized with soluble NBI-6024, challenge peptide 25 μM"}, "[14]": {"conditions": "T cells of Mouse #3 immunized with soluble NBI-6024, challenge peptide 1 μM, 0 μM 24,006 ± 2803"}, "[15]": {"conditions": "T cells of Mouse #3 immunized with soluble NBI-6024, challenge peptide 5 μM"}, "[16]": {"conditions": "T cells of Mouse #3 immunized with soluble NBI-6024, challenge peptide 25 μM"}, "[17]": {"conditions": "B(9-23) 5 μM + 10 μM competing peptide"}, "[18]": {"conditions": "B(9-23) 5 μM + 50 μM competing peptide"}}, "note": "Where “and” joins values, the source holds several entries; their conditions need not be identical. Identical values can stand only once.", "data": [{"substance": "Native 9-23: native peptide, residues 9-23 of human insulin B chain (SEQ ID NO:2) (SHLVEALYLVCGERG; Residues 9-23 of human insulin B chain; listed as Homo sapiens) [reference compound]", "values": [{"measurement": "Proliferative response, Mean cpm ± sem", "setting": "[1]; [7]", "value": "120,886 ± 7,171 cpm and 100,521 ± 1,581 cpm"}, {"measurement": "S.I. (Stimulation Index)", "setting": "[1]; [7]", "value": "175.7 and 203.89"}, {"measurement": "CPM ± SEM", "setting": "[2]; [8]", "value": "16,870 ± 4469 CPM"}, {"measurement": "CPM ± SEM", "setting": "[2]; [9]", "value": "21,292 ± 3216 CPM"}, {"measurement": "CPM ± SEM", "setting": "[2]; [10]", "value": "33,317 ± 3619 CPM"}, {"measurement": "CPM ± SEM", "setting": "[2]; [11]", "value": "17,262 ± 602 CPM"}, {"measurement": "CPM ± SEM", "setting": "[2]; [12]", "value": "19,648 ± 2169 CPM"}, {"measurement": "CPM ± SEM", "setting": "[2]; [13]", "value": "30,612 ± 3557 CPM"}, {"measurement": "CPM ± SEM", "setting": "[2]; [14]", "value": "25,825 ± 3841 CPM"}, {"measurement": "CPM ± SEM", "setting": "[2]; [15]", "value": "58,567 ± 2737 CPM"}, {"measurement": "CPM ± SEM", "setting": "[2]; [16]", "value": "113,366 ± 515 CPM"}, {"measurement": "CPM ± SEM", "setting": "[3]; B(9-23) 5 μM alone, medium only 305 ± 13", "value": "9,149 ± 1,062 CPM"}, {"measurement": "Proliferative response, Mean cpm ± sem", "setting": "[4]; [7]", "value": "45,541 ± 5,222 cpm and 65,624 ± 4,979 cpm"}, {"measurement": "S.I. (Stimulation Index)", "setting": "[4]; [7]", "value": "4.99 and 9.1"}, {"measurement": "Incidence of diabetes (percent of mice diabetic)", "setting": "[5]; NOD mice, 400 μg s.c. weekly, 13 treatments, neurotensin as control, FIG. 10", "value": "reduced the incidence of diabetes"}, {"measurement": "CPM ± SEM", "setting": "[6]; B(9-23) 5 μM alone, medium only 213 ± 17", "value": "7,840 ± 528 CPM"}]}, {"substance": "NBI-6024: insulin B chain 9-23 with alanine substitutions at positions 16 and 19 (SHLVEALALVAGERG)", "values": [{"measurement": "Proliferative response, Mean cpm ± sem", "setting": "[1]", "value": "841 ± 88 cpm and 452 ± 179 cpm"}, {"measurement": "S.I. (Stimulation Index)", "setting": "[1]", "value": "1.22 and 0.91"}, {"measurement": "Cross-reactive response to Insulin B chain (9-23)", "setting": "[2]; CFA-emulsified peptide", "value": "not seen"}, {"measurement": "CPM ± SEM", "setting": "[2]; [8]", "value": "48,319 ± 1918 CPM"}, {"measurement": "CPM ± SEM", "setting": "[2]; [9]", "value": "160,673 ± 2269 CPM"}, {"measurement": "CPM ± SEM", "setting": "[2]; [10]", "value": "268,005 ± 11198 CPM"}, {"measurement": "CPM ± SEM", "setting": "[2]; [11]", "value": "54,519 ± 5666 CPM"}, {"measurement": "CPM ± SEM", "setting": "[2]; [12]", "value": "126,123 ± 13851 CPM"}, {"measurement": "CPM ± SEM", "setting": "[2]; [13]", "value": "202,707 ± 8125 CPM"}, {"measurement": "CPM ± SEM", "setting": "[2]; [14]", "value": "64,239 ± 9493 CPM"}, {"measurement": "CPM ± SEM", "setting": "[2]; [15]", "value": "140,836 ± 11778 CPM"}, {"measurement": "CPM ± SEM", "setting": "[2]; [16]", "value": "240,278 ± 15015 CPM"}, {"measurement": "Proliferative response to challenge with the immunizing analogue", "setting": "[2]; lymph node cells from mice immunized with the analogue in CFA, dose-dependent", "value": "strong proliferative response"}, {"measurement": "Cross-reactive response to Insulin B chain (9-23)", "setting": "[2]; lymphocytes from mice immunized with the soluble peptide", "value": "also responded to Insulin B chain (9-23)"}, {"measurement": "Proliferative response to NBI-6024 challenge in vitro", "setting": "[2]; spleen and inguinal lymph node cells after soluble administered peptide", "value": "strong proliferative response"}, {"measurement": "CPM ± SEM", "setting": "[3]; [17]", "value": "6,379 ± 1,485 CPM"}, {"measurement": "% Inhibition", "setting": "[3]; [17]", "value": 30.0, "unit": "%"}, {"measurement": "CPM ± SEM", "setting": "[3]; [18]", "value": "4,305 ± 941 CPM"}, {"measurement": "% Inhibition", "setting": "[3]; [18]", "value": 52.9, "unit": "%"}, {"measurement": "Proliferative response, Mean cpm ± sem", "setting": "[4]", "value": "12,313 ± 1,372 cpm and 6,171 ± 725 cpm"}, {"measurement": "S.I. (Stimulation Index)", "setting": "[4]", "value": "1.35 and 0.85"}, {"measurement": "Reduction of the incidence of diabetes compared to the untreated group", "setting": "[5]; female NOD mice, 20 mg/kg (400 μg/mouse) s.c. weekly for 12 weeks then every other week until Week 35, p<0.004, FIG. 11", "value": "60-70%"}, {"measurement": "Incidence of diabetes compared to neurotensin treated or untreated group", "setting": "[5]; second experiment, NOD mice, 20 mg/kg s.c., FIG. 12", "value": "reduced incidence of diabetes"}, {"measurement": "CPM ± SEM", "setting": "[6]; [17]", "value": "4,441 ± 626 CPM"}, {"measurement": "% Inhibition", "setting": "[6]; [17]", "value": 43.0, "unit": "%"}, {"measurement": "CPM ± SEM", "setting": "[6]; [18]", "value": "1,389 ± 218 CPM"}, {"measurement": "% Inhibition", "setting": "[6]; [18]", "value": 82.0, "unit": "%"}]}]}
